Test results from paper PMC3914206.

Experiments:
Assay type in all cases: binding
[1] = biological target: T1, panel of 442 kinases (Homo sapiens, UniProt P12931); settings: kinase SRC; compound concentration 10 µM
T1 construct: purchased KINOMEscan
From the text: (§1) We assessed the selectivity of members of this scaffold using the KINOMEscan methodology across a near comprehensive panel of 442 kinases [[18,27]].

[2] = biological target: T2, panel of 442 kinases (Plasmodium falciparum, UniProt P61075); settings: Compound Concentration 10 µM
T2 construct: purchased KINOMEscan
From the text: as §1

[3] = biological target: T3, panel of 442 kinases (Homo sapiens, UniProt P42336); settings: Compound Concentration 10 µM
T3 construct: purchased KINOMEscan
From the text: as §1

T2 sequence (P61075 whole entry): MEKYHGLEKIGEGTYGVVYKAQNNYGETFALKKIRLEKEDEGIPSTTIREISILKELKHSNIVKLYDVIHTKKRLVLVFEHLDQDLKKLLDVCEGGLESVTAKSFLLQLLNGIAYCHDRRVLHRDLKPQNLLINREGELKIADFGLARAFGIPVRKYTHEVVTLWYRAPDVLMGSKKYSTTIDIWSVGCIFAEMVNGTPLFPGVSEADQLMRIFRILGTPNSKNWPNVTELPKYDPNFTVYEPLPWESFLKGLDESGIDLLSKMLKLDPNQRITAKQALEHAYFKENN
T1 sequence (P12931 whole entry): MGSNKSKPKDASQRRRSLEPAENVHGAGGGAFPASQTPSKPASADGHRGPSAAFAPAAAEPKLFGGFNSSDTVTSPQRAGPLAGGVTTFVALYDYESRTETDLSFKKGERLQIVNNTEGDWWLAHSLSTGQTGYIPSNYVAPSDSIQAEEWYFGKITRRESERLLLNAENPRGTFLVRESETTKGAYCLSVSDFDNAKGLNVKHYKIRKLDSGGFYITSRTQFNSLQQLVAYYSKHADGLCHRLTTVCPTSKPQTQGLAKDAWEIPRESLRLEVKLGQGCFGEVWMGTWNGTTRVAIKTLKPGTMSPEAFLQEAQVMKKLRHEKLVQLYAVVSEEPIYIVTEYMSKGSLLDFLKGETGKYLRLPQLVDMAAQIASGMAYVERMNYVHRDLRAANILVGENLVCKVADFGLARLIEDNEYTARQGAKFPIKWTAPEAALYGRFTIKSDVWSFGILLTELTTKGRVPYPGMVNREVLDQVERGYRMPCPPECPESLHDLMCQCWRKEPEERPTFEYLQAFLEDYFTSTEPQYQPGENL
T3 sequence (P42336 whole entry): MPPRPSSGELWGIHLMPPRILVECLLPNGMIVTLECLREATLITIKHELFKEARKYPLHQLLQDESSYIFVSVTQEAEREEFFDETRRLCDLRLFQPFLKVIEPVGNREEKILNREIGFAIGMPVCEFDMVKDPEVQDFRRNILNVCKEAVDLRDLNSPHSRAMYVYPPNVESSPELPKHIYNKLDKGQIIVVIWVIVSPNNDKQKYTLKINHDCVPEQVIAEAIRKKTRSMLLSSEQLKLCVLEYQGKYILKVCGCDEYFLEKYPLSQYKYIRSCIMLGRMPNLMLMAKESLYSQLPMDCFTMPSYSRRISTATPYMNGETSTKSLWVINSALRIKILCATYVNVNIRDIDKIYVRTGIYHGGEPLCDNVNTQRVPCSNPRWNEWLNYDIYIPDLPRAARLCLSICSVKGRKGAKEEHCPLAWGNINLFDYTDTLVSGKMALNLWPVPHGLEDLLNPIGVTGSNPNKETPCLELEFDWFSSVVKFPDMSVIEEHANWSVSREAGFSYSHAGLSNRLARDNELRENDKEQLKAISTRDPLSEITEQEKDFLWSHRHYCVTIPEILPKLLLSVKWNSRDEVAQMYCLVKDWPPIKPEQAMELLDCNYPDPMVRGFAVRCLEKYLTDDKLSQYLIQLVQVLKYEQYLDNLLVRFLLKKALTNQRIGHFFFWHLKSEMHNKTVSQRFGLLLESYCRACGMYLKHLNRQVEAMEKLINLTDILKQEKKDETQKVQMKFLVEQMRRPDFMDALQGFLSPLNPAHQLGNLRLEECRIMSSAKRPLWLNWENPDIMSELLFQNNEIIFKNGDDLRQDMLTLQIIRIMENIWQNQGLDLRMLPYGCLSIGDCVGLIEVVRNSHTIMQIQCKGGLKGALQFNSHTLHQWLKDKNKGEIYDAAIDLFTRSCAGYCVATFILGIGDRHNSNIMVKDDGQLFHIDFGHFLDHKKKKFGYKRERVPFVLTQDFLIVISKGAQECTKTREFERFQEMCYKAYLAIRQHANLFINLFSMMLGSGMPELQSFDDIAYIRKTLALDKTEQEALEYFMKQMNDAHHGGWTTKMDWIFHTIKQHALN

| Compound | % Ctrl, SRC [1] [% Ctrl] | KINOMEscan: PFPK5(P.falciparum) [2] | KINOMEscan: PIK3CA [3] |
| --- | --- | --- | --- |
| CCOc1cc(C(=O)N2CCC(N3CCN(C)CC3)CC2)ccc1Nc1ncc2c(n1)N(C1CCCC1)c1ccccc1C(=O)N2C [Compound 26] | 100 | 100 | 100 |
| COc1cc(C(=O)N2CCC(N3CCN(C)CC3)CC2)ccc1Nc1ncc2c(n1)N1CCc3cccc(c31)C(=O)N2C [Compound 24] | 95 | 92 |  |
| COc1cc(C(=O)N2CCC(N3CCN(C)CC3)CC2)ccc1Nc1ncc2c(n1)N(C)c1ccccc1C(=O)N2C [15 (LRRK2-IN-1)] | 100 | 100 | 74 |
| COc1cc(C(=O)N2CCC(N3CCN(C)CC3)CC2)ccc1Nc1ncc2c(n1)N(C1CCCC1)c1ccccc1C(=O)N2C [Compound 25, 11-cyclopentyl-2-((2-methoxy-4-(4-(4-methylpiperazin-1-yl)piperidine-1-carbonyl)phenyl)amino)-5-methyl-5H-benzo[e]pyrimido[5,4-b][1,4]diazepin-6(11H)-one] | 90 | 85 | 100 |
